Patent US10583074B2, “Oral care compositions” (priority 2017, dated 2020)
In brackets after ≈: the same amount, converted by molar mass. Read-outs that look alike come from different tables or passages of the source.

Key:
Experiment in all cases: Minimum inhibitory concentration
Type in all cases: cell-based
[1] = tested on: Streptococcus oralis ATCC 35037
From the text: (§1) That is, the amount in parts-per-million (ppm) required to inhibit the growth of common bacterial pathogens.

[2] = tested on: Actinomyces viscosus ATCC 43137
From the text: as §1

[3] = tested on: Lactobacillus casei ATCC 334; conditions: Lacticaseibacillus casei
From the text: as §1

[4] = ATCC35037, Streptococcus oralis ATCC 35037, solvent ethanol or DMSO per sample, read-out: minimum inhibitory concentration
[5] = ATCC43137, Actinomyces viscosus ATCC 43137, solvent ethanol or DMSO per sample, read-out: minimum inhibitory concentration
[6] = ATCC334, Lactobacillus casei ATCC 334, solvent ethanol or DMSO per sample, read-out: minimum inhibitory concentration

Row | SMILES | MIC [1, 4] [µg/mL] | MIC [2, 5] [µg/mL] | MIC [3, 6] [µg/mL] | MIC ([1]; Streptococcus oralis, ATCC35037, read-out: minimum inhibitory concentration) [µg/mL] | MIC ([2]; Actinomyces viscosus, ATCC43137, read-out: minimum inhibitory concentration) [µg/mL] | MIC ([3]; ATCC334, read-out: minimum inhibitory concentration) [µg/mL]
1 | CC1(C)CC[C@]2(C(=O)O)CC[C@]3(C)C(=CC[C@@H]4[C@@]5(C)CC[C@H](O)C(C)(C)[C@@H]5CC[C@]43C)[C@@H]2C1 [Oleanic Acid, 3β-hydroxy-olea-12-en-28-oic] | 7.8 (≈ 17.1 µM) | 15.6 (≈ 34.2 µM) | 7.8 (≈ 17.1 µM) |  |  | 
2 | C=CCc1ccc(O)c(OC)c1 [Eugenol, 4-allyl-2-methoxyphenol] | 250 (≈ 1520 µM) | 250 (≈ 1520 µM) | 250 (≈ 1520 µM) |  |  | 
3 | Oc1cc(Cl)ccc1Oc1ccc(Cl)cc1Cl [Triclosan] |  |  |  | 7.8 (≈ 26.9 µM) | 3.9 (≈ 13.5 µM) | 7.8 (≈ 26.9 µM)
